Test results from ChEMBL document CHEMBL2375327, “Carbonic anhydrase inhibitors: inhibition of the β-class enzyme from the pathogenic yeast Candida glabrata with sulfonamides, sulfamates and sulfamides” (Bioorg Med Chem Lett, 2013).

Legend:
[1] = biological target: T1, Carbonic anhydrase (Candida glabrata CBS 138, UniProt Q6FTL6); parameters: species or system Nakaseomyces glabratus
T1 sequence (Q6FTL6 whole entry): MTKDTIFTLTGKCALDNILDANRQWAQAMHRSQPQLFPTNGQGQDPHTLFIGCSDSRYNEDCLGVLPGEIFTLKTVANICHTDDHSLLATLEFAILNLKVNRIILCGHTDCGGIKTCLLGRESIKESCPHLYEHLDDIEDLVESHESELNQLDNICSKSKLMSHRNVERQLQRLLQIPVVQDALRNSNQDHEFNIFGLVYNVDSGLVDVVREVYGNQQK

[2] = biological target: T2, Carbonic anhydrase (Candida albicans (strain SC5314 / ATCC MYA-2876) (Yeast), UniProt Q5AJ71)
T2 sequence (Q5AJ71 whole entry): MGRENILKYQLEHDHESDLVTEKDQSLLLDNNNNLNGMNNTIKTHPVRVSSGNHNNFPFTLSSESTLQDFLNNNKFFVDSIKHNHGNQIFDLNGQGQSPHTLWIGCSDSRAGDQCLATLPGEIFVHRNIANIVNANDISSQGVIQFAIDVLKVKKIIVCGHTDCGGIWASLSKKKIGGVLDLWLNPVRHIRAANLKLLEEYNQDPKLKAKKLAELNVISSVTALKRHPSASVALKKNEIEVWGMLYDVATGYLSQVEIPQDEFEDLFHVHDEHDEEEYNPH

[3] = biological target: Carbonic anhydrase 2 (Homo sapiens, UniProt P00918); experiment: Inhibition of human carbonic anhydrase-2 preincubated for 15 mins by stopped-flow CO2 hydrase assay
[4] = Selectivity ratio of Ki for human carbonic anhydrase-2 to Ki for recombinant full length Candida glabrata NCE103

Row | Ki ([1]; read-out: Ki) [nM] | Compound | Ki [2] [nM] | also measured
1 | 865 | NCc1ccc(S(N)(=O)=O)cc1 [MAFENIDE] |  | 
2 | 48 | NS(=O)(=O)c1ccc(CCO)cc1 |  | 
3 | 116 | Cc1ccc(-c2cc(C(F)(F)F)nn2-c2ccc(S(N)(=O)=O)cc2)cc1 [CELECOXIB] |  | 
4 | 846 | Cc1ccc(S(N)(=O)=O)cc1 [P-TOLUENESULFONAMIDE] |  | 
5 | 5.4 | NS(=O)(=O)c1ccc(NC(=O)Nc2ccc(Br)cc2)cc1 |  | 
6 | 3130 | CCOc1ccc2nc(S(N)(=O)=O)sc2c1 [ETHOXZOLAMIDE] |  | 
7 | 81 | NS(=O)(=O)c1ccc(NC(=O)NCc2ccccc2)cc1 |  | 
8 | 53 | NS(=O)(=O)c1ccc(C(=O)O)cc1 [CARZENIDE] |  | 
9 | 786 | Cn1nc(S(N)(=O)=O)sc1=N |  | 
10 | 8010 | Nc1ccc(S(N)(=O)=O)cc1 [SULFANILAMIDE] |  | 
11 | 98 | Nc1ccc(S(=O)(=O)NCCc2ccc(S(N)(=O)=O)cc2)cc1 |  | 
12 | 83 | Nc1nccc(Nc2ccc(S(N)(=O)=O)cc2)n1 |  | 
13 | 108 | Nc1ccc(S(=O)(=O)NCc2ccc(S(N)(=O)=O)cc2)cc1 |  | 
14 | 98 | Nc1ccc(S(N)(=O)=O)cc1F |  | 
15 | 86 | Nc1cc(Cl)c(S(N)(=O)=O)cc1S(N)(=O)=O |  | 
16 | 7 | NS(=O)(=O)c1ccc(NC(=O)Nc2ccc(Cl)cc2)cc1 |  | 
17 | 97 | Nc1cc(C(F)(F)F)c(S(N)(=O)=O)cc1S(N)(=O)=O |  | 
18 | 95 | Nc1nnc(S(N)(=O)=O)s1 |  | 
19 | 73 | NS(=O)(=O)c1ccc(NC(=O)Nc2ccccc2)cc1 |  | 
20 | 106 | Nc1ccc(S(=O)(=O)Nc2nnc(S(N)(=O)=O)s2)cc1 |  | 
21 | 952 | NS(=O)(=O)c1nnc(NS(=O)(=O)c2ccccc2)s1 [BENZOLAMIDE] |  | 
22 | 109 | Nc1ccc(S(N)(=O)=O)cc1Br |  | 

Continued, compound first:

Row | Compound | Ki ([1]; read-out: Ki) [nM] | Ki [2] [nM] | also measured
23 | NS(=O)(=O)Nc1ccc(NC(=O)NC2CCCCC2)cc1 | 80.1 | 134 | 
24 | Cc1onc(-c2ccccc2)c1-c1ccc(S(N)(=O)=O)cc1 [VALDECOXIB] | 97 |  | 
25 | NS(=O)(=O)Oc1ccc(NC(=O)Nc2ccc3c(c2)Cc2ccccc2-3)cc1 | 115 | 76 | 
26 | NS(=O)(=O)Oc1ccc(NC(=O)Nc2c(F)cc(F)cc2Br)cc1 | 5 | 84 | 
27 | NS(=O)(=O)c1ccc(S(=O)(=O)Nc2cccc3c(Cl)c[nH]c23)cc1 | 94 |  | 
28 | CCN[C@H]1CN(CCCOC)S(=O)(=O)c2sc(S(N)(=O)=O)cc21 [BRINZOLAMIDE] | 4350 |  | 
29 | NS(=O)(=O)Oc1ccc(NC(=O)Nc2ccc([N+](=O)[O-])cc2)cc1 | 6.4 | 106 | 
30 | CCCCOc1ccc(NC(=O)Nc2ccc(NS(N)(=O)=O)cc2)cc1 | 13.9 | 135 | 
31 | CC(C)c1ccccc1NC(=O)Nc1ccc(NS(N)(=O)=O)cc1 | 33.8 | 55 | 
32 | NCCc1ccc(S(N)(=O)=O)cc1 | 550 |  | 
33 | NS(=O)(=O)Oc1ccc(NC(=O)Nc2cccc3ccccc23)cc1 | 89 | 1430 | 
34 | NS(=O)(=O)Oc1ccc(NC(=O)Nc2cccc(Cl)c2)cc1 | 89 | 124 | 
35 | NS(=O)(=O)Nc1ccc(NC(=O)Nc2ccccc2-c2ccccc2)cc1 | 6.7 | 72 | 
36 | NS(=O)(=O)c1ccc(NC(=O)NCCc2ccccc2)cc1 | 56 | 124 | Ki [3]: 660 nM
37 | NS(=O)(=O)Nc1ccc(NC(=O)Nc2cccc([N+](=O)[O-])c2)cc1 | 4.1 | 109 | 
38 | NS(=O)(=O)Nc1ccc(NC(=O)Nc2ccc(Cl)cc2)cc1 | 5.5 | 102 | Ratio Ki [4]: 57

Row | Compound | Ki ([1]; read-out: Ki) [nM] | Ki [2] [nM] | also measured
39 | Nc1ccc(S(N)(=O)=O)cc1Cl | 97 |  | 
40 | NS(=O)(=O)Oc1ccc(NC(=O)Nc2ccc(C(F)(F)F)c(C(F)(F)F)c2C(F)(F)F)cc1 | 5.8 | 76 | 
41 | NS(=O)(=O)Oc1ccc(NC(=O)NCCc2ccccc2)cc1 | 7.5 | 133 | 
42 | NS(=O)(=O)Nc1ccc(NC(=O)NCc2ccco2)cc1 | 24.1 | 58 | 
43 | NS(=O)(=O)Oc1ccc(NC(=O)Nc2ccccc2)cc1 | 9.6 |  | 
44 | NS(=O)(=O)c1ccc(NC(=O)Nc2cccc([N+](=O)[O-])c2)cc1 | 6.1 |  | 
45 | NS(=O)(=O)c1nnc(-c2ccccc2Cl)s1 | 420 |  | 
46 | Cc1cc(C)cc(NC(=O)Nc2ccc(NS(N)(=O)=O)cc2)c1 | 8.5 | 139 | 
47 | NS(=O)(=O)Nc1ccc(NC(=O)NCc2ccccc2)cc1 | 24.3 | 146 | 
48 | NS(=O)(=O)Oc1ccc(NC(=O)Nc2ccc(Cl)cc2)cc1 | 9.4 | 505 | 
49 | NS(=O)(=O)Nc1ccc(NC(=O)NCCc2ccccc2)cc1 | 15.1 | 130 | 
50 | N#Cc1ccccc1NC(=O)Nc1ccc(OS(N)(=O)=O)cc1 | 89 | 156 | 
51 | NS(=O)(=O)c1ccc(CO)cc1 | 61 |  | 
52 | Nc1ccc(S(N)(=O)=O)cc1I |  |  | Ki [1]: 128 nM
53 | NS(=O)(=O)Oc1ccc(NC(=O)NCc2ccccc2)cc1 | 8.4 | 137 | Ki [3]: 274 nM
54 | CC1(C)O[C@@H]2[C@@H](CO[C@@]3(COS(N)(=O)=O)OC(C)(C)O[C@@H]23)O1 [TOPIRAMATE] | 110 |  | 
